The values that follow come from publication PMC4384115, “Molecular Recognition of PTS-1 Cargo Proteins by Pex5p: Implications for Protein Mistargeting in Primary Hyperoxaluria” (Biomolecules, 2015).

No end group written: not given here.

The target in assay [1] is T1, Pex5p-pbd (PTS1 binding domain of human Pex5p, amino acids 235–602) (Homo sapiens, UniProt P50542).
T1 construct: Pex5p-pbd; amino acids 235–602; hexa-histidine (N); made in house
Briefly: Isothermal titration calorimetry of AGT proteins and PTS1 nonapeptides with Pex5p-pbd. Conditions: for -TΔS / ΔG / ΔH / decrease in the enthalpic penalty (more favorable enthalpic contribution) to binding compared to the natural PTS1 sequence / N (binding stoichiometry) / Kd: ITC; for -TΔS / ΔG / ΔH / N (binding stoichiometry) / Kd: pH 7.4, 25 °C; for ΔCp: from the linear dependence of ΔH on temperature, 10–35 °C, pH 7.4; for decrease in the enthalpic penalty (more favorable enthalpic contribution) to binding compared to the natural PTS1 sequence: 25 °C, full-length AGT / AGT-LRM background; for N (binding stoichiometry): 20 mM Na-HEPES, 200 mM NaCl, AGT protein in cell titrated with Pex5p-pbd. The method, then: Calorimetric measurements were carried out using a MicroCal ITC200 microcalorimeter (MicroCal, Malvern Instruments) with 205.9 μL cell volume. All the experiments were performed using 20 mM Na-HEPES (or Na-Phosphate), 200 mM NaCl, pH 7.4. […] Each titration was initiated by a 0.5 μL injection followed by 14–30 injections of 1.2–2.5 μL (spaced 150 s). Heats of dilution were determined experimentally from blank titrations. The association constants (Ka), binding enthalpy changes (ΔH), as well as the binding stoichiometries (N), were obtained by non-linear regression analysis using a one-independent-type-of-sites binding model implemented in the Origin 7.0. Software (Origin Lab Co., Northampton, MA, USA).

Assay [2] has as its system CHO cells. Kind of assay: Confocal immunofluorescence colocalization of AGT with mitochondria (Mitotracker) in transfected CHO cells. Type of assay: cell-based, Chinese hamster. Conditions: transiently transfected CHO cells, fixed 72 h after transfection; mean ± S.E.; SEM. As for the experimental part:
(§1) Chinese hamster ovary (CHO) cells (ATTC, Rockville, MD USA) were grown in alpha-minimal essential medium (α-MEM, Lonza, Köln, Germany) supplemented with glutamine, penicillin/streptomycin and 5% fetal bovine serum. Cell transfections were performed using AGT cDNA variants (AGT-LRM or AGT-LRM-SKL) subcloned in pCIneo plasmids (Promega) with Transfast reagent (Promega, Madison, WI, USA), following manufacturer’s guidelines. After 24 h, cells were passed to plates containing 13 mm glass coverslips for immunofluorescence studies. Mitochondria in half the coverslips were labeled by incubation with Mitotracker (CMXRos, Invitrogen, Carlsbad, CA, USA) at the end of the culture. […]
(§2) For quantitative immune-colocalization, the system was optimized to detect two fluorescent signals in one specimen: one in the green channel detector for protein of interest AGT-LRM or AGT-LRM-SKL and the other in the red channel, for either mitochondria labeled with mitotracker or peroxisomes labeled with peroxisomal membrane protein 70 (PMP70) antibody. […] Colocalization events (or the lack thereof) were analyzed quantitatively with FluoView software (Olympus, Tokyo, Japan) and ImageJ software (NIH, Bethesda, MD, USA) with the JACoP plugin, based on a global statistic approach that conducts an intensity correlation coefficient-based examination. […]

Assay [3] has as its system CHO cells. Briefly: Confocal immunofluorescence colocalization of AGT with peroxisomes (PMP70) in transfected CHO cells. Conditions: mean ± S.E., SEM. In kind it is cell-based, Chinese hamster. As for the experimental part: as §1, §2
The target in a further assay is Pex5p. Conditions: PTS1 octapeptide sequences; read-out: Kd (nM), previously determined dissociation constant; cited from earlier work.
Setting [4] is: AGT proteins, mean ± s.d. of three independent titrations, SD.
Setting [5] is: mean ± s.d. of three independent titrations, SD.
[6] abbreviates: PTS1 nonapeptides (500 μM) titrated into Pex5p-pbd (20 μM), means of two independent titrations.

As to QHCPK S KL [AGT-SKL], in assay [1] (setting [4]), the “-TΔS” value was -11.8 ± 0.406 kcal/mol, the ΔG is -10.3 ± 0.22 kcal/mol and the ΔH is 1.51 ± 0.19 kcal/mol. The same substance returned a ΔCp in assay [1] (AGT proteins) of −2.7 ± 0.1 kJ/mol·K. For the same substance, the “decrease in the enthalpic penalty (more favorable enthalpic contribution) to binding compared to the natural PTS1 sequence” value in assay [1] was “about 16 kJ/mol”. In addition, the “N (binding stoichiometry)” value in assay [1] (setting [5]) was 0.8 ± 0.1. In the assay with CHO cells [2], the “Pearson Rr, AGT + Mitotracker” value amounted to 0.47 ± 0.08. Further, the “% Coloc (Manders' m), AGT + PMP70” value with CHO cells [3] (CHO cells, given as fraction, split Manders' M1 in situation 2, Manders' overlap R in situation 4) is recorded as 0.84 ± 0.08. The “Pearson Rr, AGT + PMP70” value in the assay with CHO cells [3] (transiently transfected CHO cells, fixed 72 h after transfection) turned out to be 0.79 ± 0.08.

Take “QHCPKKKL [AGT, alanine: glyoxylate aminotransferase, reference compound]”: in assay [1] (setting [4]), the “-TΔS” value is -13.2 ± 0.287 kcal/mol; the affinity, expressed as Kd, was 1400 ± 200 nM; the ΔG was -8.01 ± 0.096 kcal/mol; the ΔH stood at 5.19 ± 0.884 kcal/mol. This substance registered a ΔCp in assay [1] (AGT proteins) of −2.5 ± 0.4 kJ/mol·K. For the same substance, in assay [1] (setting [5]), the “N (binding stoichiometry)” value is reported as 1.0 ± 0.1.

In the case of VAQATC KL [HMG, reference compound], the “decrease in the enthalpic penalty (more favorable enthalpic contribution) to binding compared to the natural PTS1 sequence” value in assay [1] was “about 16 kJ/mol”. Also, the Kd on Pex5p is 2000 nM.

With VGSL K S KL [ACO], the Kd on Pex5p is 1.6 nM.

Take YQHCPKKKL [pAGT]: the dissociation constant Kd in assay [1] (setting [6]) was found to be 19000 nM.

On to YQHCPKSKL [pAGT-SKL], for which binding in assay [1] (setting [6]) was characterised by a dissociation constant (Kd) of 29 nM.

Consider YQSHPRAKL [pCRA], for which, in assay [1] (setting [6]), the Kd stood at 157 nM.

Substance YVGSLKSKL [pACO] displayed a Kd in assay [1] (setting [6]) of 14 nM.
